The numbers were not newly measured in patent US20070134244A1, “Combination treatment for pathologic ocular angiogenesis” (Alcon, Inc., priority 2005, published 2007), which cites them from elsewhere.

The subject of the data set is xenotransplant models of colon cancer. The conditions noted are these: xenotransplant models of colon cancer in nude (athymic) mice; Presta et al. 1997.

Turning to bevacizumab, the metastatic disease progression entry is given as “inhibition of metastatic disease progression” and the microvascular growth result is listed as “reduction of microvascular growth”.
